Measurements from ChEMBL document CHEMBL1136799, “Design and synthesis of pyrrolidine-5,5'-trans-lactams (5-oxo-hexahydropyrrolo[3,2-b]pyrroles) as novel mechanism-based inhibitors of human cytomegalovirus protease. 4. Antiviral activity and plasma stability” (J Med Chem, 2003).

Assays:
[1] = molecular target: T1, Capsid scaffolding protein (Human cytomegalovirus (strain AD169) (HHV-5) (Human herpesvirus 5), UniProt P16753); assay: Inhibition of human cytomegalovirus protease in HCMV pNA assay.; parameters: species or system Human herpesvirus 5 strain AD169
T1 sequence (P16753 whole entry): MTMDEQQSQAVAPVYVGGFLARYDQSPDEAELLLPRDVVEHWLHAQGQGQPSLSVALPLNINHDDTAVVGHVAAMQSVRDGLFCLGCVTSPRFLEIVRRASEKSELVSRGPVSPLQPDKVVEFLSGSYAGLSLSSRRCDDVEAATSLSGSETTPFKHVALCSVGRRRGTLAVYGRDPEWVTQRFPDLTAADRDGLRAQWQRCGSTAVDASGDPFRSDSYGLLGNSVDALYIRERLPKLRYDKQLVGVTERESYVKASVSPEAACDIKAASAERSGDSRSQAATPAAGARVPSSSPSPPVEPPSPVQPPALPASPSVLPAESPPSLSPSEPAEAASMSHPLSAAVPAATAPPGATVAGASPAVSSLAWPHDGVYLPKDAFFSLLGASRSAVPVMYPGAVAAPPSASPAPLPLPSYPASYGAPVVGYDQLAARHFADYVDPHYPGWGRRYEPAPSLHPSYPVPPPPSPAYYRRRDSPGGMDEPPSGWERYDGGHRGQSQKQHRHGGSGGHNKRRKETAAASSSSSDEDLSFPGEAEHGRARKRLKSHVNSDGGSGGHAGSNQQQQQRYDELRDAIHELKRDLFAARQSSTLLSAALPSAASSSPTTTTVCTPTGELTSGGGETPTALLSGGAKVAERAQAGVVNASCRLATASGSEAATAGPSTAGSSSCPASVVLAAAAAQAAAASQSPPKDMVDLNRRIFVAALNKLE

[2] = tested on: Vero; assay: Growth inhibition of cytomegalovirus in Vero cells; format: functional, Human betaherpesvirus 5
[3] = tested on: Human betaherpesvirus 5; assay: Concentration required to inhibit human cytomegalovirus HCMV-AD169 in antiviralplaque reduction assay; format: functional, organism-based
[4] = molecular target: T1, Capsid scaffolding protein; assay: Potency against human cytomegalovirus protease in HCMV pNA assay; parameters: species or system Human herpesvirus 5 strain AD169
[5] = Compound was tested for its stability in human plasma; format: ADME, organism-based

Work on `C[C@@H]1C(=O)N(C(=O)C2CC2)[C@H]2CCN(C(=O)[C@@H]3CCCN3S(=O)(=O)c3ccc(-c4ccc(Cl)cc4)cc3)[C@H]12` yielded an IC50 [1] of 840 nM.

`CC(C)c1ccc(NC(=O)N2CCC[C@H]2C(=O)N2CC[C@H]3[C@H]2[C@H](C)C(=O)N3c2nc3cc(Cl)ccc3s2)cc1` showed an IC50 [1] of 460 nM, a CCID50 [2] of 266 µM and an IC50 [3] of 49000 nM.

For `CC(C)Oc1ccc(NC(=O)N2CCC[C@H]2C(=O)N2CC[C@H]3[C@H]2[C@H](C)C(=O)N3C(=O)C2CC2)cc1`, the Ki [4] was 18 nM and the IC50 [1] was 180 nM.

Work on `CCCOc1ccc(-c2ccc(C(=O)N3CCC[C@H]3C(=O)N3CC[C@H]4[C@H]3[C@H](C)C(=O)N4C(=O)C3CC3)cc2)cc1` yielded a Ki [4] of 79 nM.

For `C[C@@H]1C(=O)N(C(=O)C2CC2)[C@H]2CCN(C(=O)[C@@H]3CCCN3C(=O)Nc3ccc(C(F)(F)F)cc3)[C@H]12`, the Ki [4] was 15 nM and the IC50 [1] was 230 nM.

With `C[C@@H]1C(=O)N(C(=O)C2CC2)[C@H]2CCN(C(=O)[C@@H]3CCCN3C(=O)Nc3ccc(Cl)cc3)[C@H]12` the Ki [4] was 38 nM and the IC50 [1] was 260 nM.

In the case of `CCCOc1ccc(-c2ccc(NC(=O)N3CCC[C@H]3C(=O)N3CC[C@H]4[C@H]3[C@H](C)C(=O)N4C(=O)C3CC3)cc2)cc1`, the Ki [4] is reported as 9 nM.

`CC(C)c1ccc(NC(=O)N2CCC[C@H]2C(=O)N2CC[C@H]3[C@H]2[C@H](C)C(=O)N3c2nc3c(Cl)cccc3s2)cc1` gave an IC50 [1] of 290 nM, a CCID50 [2] greater than 500 µM and an IC50 [3] of 17100 nM.

For `COc1ccc2sc(N3C(=O)[C@@H](C)[C@@H]4[C@@H]3CCN4C(=O)[C@@H]3CCCN3C(=O)Nc3ccc(C(C)C)cc3)nc2c1`, the IC50 [1] was 230 nM, the CCID50 [2] was greater than 500 µM and the IC50 [3] was 2400 nM.

`C[C@@H]1C(=O)N(C(=O)C2CC2)[C@H]2CCN(C(=O)[C@@H]3CCCN3S(=O)(=O)c3ccccc3)[C@H]12` showed an IC50 [1] of 1800 nM.

In the case of `C[C@@H]1C(=O)N(C(=O)C2CC2)[C@H]2CCN(C(=O)[C@@H]3CCCN3C(=O)c3ccc(-c4ccccc4)cc3)[C@H]12`, the Ki [4] is reported as 21 nM and the IC50 [1] is reported as 300 nM.

`COc1cccc2sc(N3C(=O)[C@@H](C)[C@@H]4[C@@H]3CCN4C(=O)[C@@H]3CCCN3C(=O)Nc3ccc(C(C)C)cc3)nc12` gave an IC50 [1] of 240 nM, a CCID50 [2] of 89 µM and an IC50 [3] of 5200 nM.

`COc1ccc2nc(N3C(=O)[C@@H](C)[C@@H]4[C@@H]3CCN4C(=O)[C@@H]3CCCN3C(=O)Nc3ccc(C(C)C)cc3)sc2c1` gave a Ki [4] of 43 nM, an IC50 [1] of 220 nM and a CCID50 [2] greater than 500 µM. The IC50 [3] was 3200 nM.

`CC(C)c1ccc(NC(=O)N2CCC[C@H]2C(=O)N2CC[C@H]3[C@H]2[C@H](C)C(=O)N3C(=O)C2C(C)(C)C2(C)C)cc1` gave an IC50 [1] greater than 20000 nM, a CCID50 [2] of 38 µM and a half-life [5] of 16 h. For the same compound, the IC50 [3] was greater than 35000 nM.

With `CC(C)Oc1ccc(S(=O)(=O)N2CCC[C@H]2C(=O)N2CC[C@H]3[C@H]2[C@H](C)C(=O)N3C(=O)C2CC2)cc1` the Ki [4] was 39 nM and the IC50 [1] was 400 nM.

`C[C@@H]1C(=O)N(C(=O)C2CC2)[C@H]2CCN(C(=O)[C@@H]3CCCN3C(=O)Nc3ccc(-c4ccc(Cl)cc4)cc3)[C@H]12` showed an IC50 [1] of 260 nM.

In the case of `CC(C)c1ccc(S(=O)(=O)N2CCC[C@H]2C(=O)N2CC[C@H]3[C@H]2[C@H](C)C(=O)N3C(=O)C2CC2)cc1`, the Ki [4] is reported as 99 nM and the IC50 [1] is reported as 460 nM.

With `C[C@@H]1C(=O)N(C(=O)C2CC2)[C@H]2CCN(C(=O)[C@@H]3CCCN3C(=O)Nc3cccc4ccccc34)[C@H]12` the IC50 [1] was 650 nM.

`COc1ccc(C)c2sc(N3C(=O)[C@@H](C)[C@@H]4[C@@H]3CCN4C(=O)[C@@H]3CCCN3C(=O)Nc3ccc(C(C)C)cc3)nc12` gave an IC50 [1] of 1100 nM, a CCID50 [2] of 126 µM and a half-life [5] greater than 24 h. It also gave an IC50 [3] of 17400 nM.

`CCCOc1ccc(NC(=O)N2CCC[C@H]2C(=O)N2CC[C@H]3[C@H]2[C@H](C)C(=O)N3C(=O)C2CC2)cc1` gave a Ki [4] of 9 nM and an IC50 [1] of 210 nM.

`C[C@@H]1C(=O)N(C(=O)C2CC2)[C@H]2CCN(C(=O)[C@@H]3CCCN3S(=O)(=O)Cc3ccccc3)[C@H]12` showed an IC50 [1] of 2100 nM.

`C[C@@H]1C(=O)N(C(=O)C2CC2)[C@H]2CCN(C(=O)[C@@H]3CCCN3C(=O)c3ccc(-c4ccc(Cl)cc4)cc3)[C@H]12` gave an IC50 [1] of 1400 nM.

In the case of `CC(C)c1ccc(NC(=O)N2CCC[C@H]2C(=O)N2CC[C@H]3[C@H]2[C@H](C)C(=O)N3c2nc3ccc(F)cc3s2)cc1`, the IC50 [1] is reported as 360 nM, the CCID50 [2] is reported as 298 µM and the half-life [5] is reported as greater than 24 h. For the same compound, the IC50 [3] was 12300 nM.

Compound `C[C@@H]1C(=O)N(C(=O)C2CC2)[C@H]2CCN(C(=O)[C@@H]3CCCN3C(=O)c3cccc4ccccc34)[C@H]12` has an IC50 [1] of 890 nM.

Work on `Nc1nc2c(ncn2COC(CO)CO)c(=O)[nH]1` [GANCICLOVIR] yielded a CCID50 [2] greater than 500 µM and an IC50 [3] of 720 nM.

For `CC(C)c1ccc(NC(=O)N2CCC[C@H]2C(=O)N2CC[C@H]3[C@H]2[C@H](C)C(=O)N3c2nc3cc(S(=O)(=O)C(F)F)ccc3s2)cc1`, the IC50 [1] was 210 nM, the CCID50 [2] was greater than 500 µM and the IC50 [3] was 2200 nM.

Work on `C[C@@H]1C(=O)N(C(=O)C2CC2)[C@H]2CCN(C(=O)[C@@H]3CCCN3S(=O)(=O)c3cccc4cc(N(C)C)ccc34)[C@H]12` yielded an IC50 [1] of 1100 nM.

Compound `C[C@@H]1C(=O)N(C(=O)C2CC2)[C@H]2CCN(C(=O)[C@@H]3CCCN3S(=O)(=O)c3ccc4ccccc4c3)[C@H]12` has a Ki [4] of 40 nM and an IC50 [1] of less than 190 nM.

Compound `CCCOc1ccc(S(=O)(=O)N2CCC[C@H]2C(=O)N2CC[C@H]3[C@H]2[C@H](C)C(=O)N3C(=O)C2CC2)cc1` has a Ki [4] of 33 nM and an IC50 [1] of 230 nM.

Work on `Cc1c(C(=O)N2CCC[C@H]2C(=O)N2CC[C@H]3[C@H]2[C@H](C)C(=O)N3C(=O)C2CC2)sc2ccc(Cl)cc12` yielded a Ki [4] of 2 nM and an IC50 [1] of 190 nM.

`C[C@@H]1C(=O)N(C(=O)C2CC2)[C@H]2CCN(C(=O)[C@@H]3CCCN3C(=O)c3ccc(Cl)cc3)[C@H]12` showed an IC50 [1] of 1400 nM.

For `C[C@@H]1C(=O)N(C(=O)C2CC2)[C@H]2CCN(C(=O)[C@@H]3CCCN3S(=O)(=O)c3cccc4ccccc34)[C@H]12`, the Ki [4] was 60 nM and the IC50 [1] was 370 nM.

Compound `C[C@@H]1C(=O)N(C(=O)C2CC2)[C@H]2CCN(C(=O)[C@@H]3CCCN3S(=O)(=O)c3ccc(Cl)cc3)[C@H]12` has an IC50 [1] of 840 nM.

For `C[C@@H]1C(=O)N(C(=O)C2CC2)[C@H]2CCN(C(=O)[C@@H]3CCCN3C(=O)Nc3cccc(C(F)(F)F)c3)[C@H]12`, the IC50 [1] was 590 nM.

In the case of `C[C@@H]1C(=O)N(C(=O)C2CC2)[C@H]2CCN(C(=O)[C@@H]3CCCN3C(=O)Nc3cccc(Cl)c3)[C@H]12`, the IC50 [1] is reported as 650 nM.

Compound `C[C@@H]1C(=O)N(C(=O)C2CC2)[C@H]2CCN(C(=O)[C@@H]3CCCN3C(=O)Nc3ccccc3)[C@H]12` has an IC50 [1] of 1400 nM.

`CCCOc1ccc(C(=O)N2CCC[C@H]2C(=O)N2CC[C@H]3[C@H]2[C@H](C)C(=O)N3C(=O)C2CC2)cc1` gave a Ki [4] of 79 nM and an IC50 [1] of 540 nM.

With `CCCOc1ccc(-c2ccc(S(=O)(=O)N3CCC[C@H]3C(=O)N3CC[C@H]4[C@H]3[C@H](C)C(=O)N4C(=O)C3CC3)cc2)cc1` the Ki [4] was 33 nM.

Work on `CC(C)c1ccc(C(=O)N2CCC[C@H]2C(=O)N2CC[C@H]3[C@H]2[C@H](C)C(=O)N3C(=O)C2CC2)cc1` yielded an IC50 [1] of 390 nM.

`CC(C)c1ccccc1NC(=O)N1CCC[C@H]1C(=O)N1CC[C@H]2[C@H]1[C@H](C)C(=O)N2C(=O)C1CC1` showed an IC50 [1] of 470 nM.
